In PubChem BioAssay (NCI) one finds TGI and GI50 data, which are given here for 17 compounds.

Holding throughout (assay): growth of human tumour cells (NCI), 48 h
Experiment [1] has as its system MALME-3M melanoma.
The test system of experiment [2] is ACHN renal.
The test system of experiment [3] is EKVX NSCLC.
The test system of experiment [4] is OVCAR-8 ovarian.
Experiment [5] relates to SW-620 colon.
For experiment [6], the system named is HCT-116 colon.
The test system of experiment [7] is SNB-19 CNS.
Experiment [8] has as its system SF-539 CNS.
For experiment [9], the system named is A498 renal.
Experiment [10] deals with MOLT-4 leukemia.

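Five compound concentrations were applied to cells in 96-well plates for 48 hours; endpoints were derived by simple linear interpolation of the resulting dose-response curve. GI50 marks 50% less growth. At the TGI there is no net growth.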

`CC1=C(C(=O)NCc2ccccc2)C(c2ccc([N+](=O)[O-])cc2)C(C(=O)NCc2ccccc2)=C(C)N1`: the TGI is > 100 µM in experiment [1]; 89.7 µM in experiment [2]; > 100 µM in [3]; > 100 µM in [4]; > 100 µM in experiment [5]; 60.6 µM in experiment [6]. Moreover, the TGI in experiment [7], in experiment [8] and in experiment [9] was > 100 µM each time.

On to `O=C1c2ccccc2NC1(c1ccccc1)c1c(-c2ccccc2)[nH]c2ccccc12` (configuration not stated), for which the TGI in experiment [2] is > 100 µM; in experiment [3], > 100 µM; in experiment [4], > 100 µM; in experiment [5], > 100 µM; in experiment [10], 20.6 µM; in experiment [6], > 100 µM. Besides, the TGI in [7], in experiment [8] and in experiment [9] was > 100 µM throughout.

On to `CN(CCc1ccccn1)c1nc(=[N+](C)C)ss1`, for which the TGI in experiment [1], in experiment [2], in experiment [3], in experiment [4], in experiment [5] and in [10] was > 100 µM in each case. Further, the TGI in experiment [7], in [8] and in [9] was > 100 µM each time.

Regarding `O=C(Cc1csc(-c2nc(CC(=O)NNc3ccccc3)cs2)n1)NNc1ccccc1`, the TGI in [1], in [2], in experiment [3], in [4], in experiment [10] and in experiment [6] was > 100 µM each time. Further, the TGI in experiment [7], in experiment [8] and in [9] was > 100 µM in each case.

`Cc1cc(Nc2c3ccccc3nc3ccccc23)ccc1NS(C)(=O)=O`: the GI50 in experiment [1] was 3.4 µM; in [2], 2.96 µM; in experiment [4] it was 3.41 µM; in experiment [5], 3.36 µM; in experiment [10] it was 3.28 µM; in experiment [6] it was 3.12 µM. Besides, the GI50 is 5.65 µM in experiment [7], 3.74 µM in experiment [8] and 2.24 µM in experiment [9]. For the same compound, the TGI in [1] stood at 10.3 µM; in experiment [2], 12.5 µM; in [4], 21.7 µM; in experiment [5], 15.9 µM; in experiment [10], 9.61 µM; in experiment [6], 11.6 µM. Further, the TGI in [7] turned out to be 35.9 µM; in [8] it was 14.9 µM; in experiment [9], 10.6 µM.

In the case of `Cc1ccc(NC(=O)C(=O)CC(=O)C2CCOC2=O)c(C)c1` (configuration not stated), the TGI in experiment [1], in [2], in experiment [3], in experiment [4], in experiment [5] and in experiment [6] was > 100 µM in each case. The TGI in experiment [7], in experiment [8] and in experiment [9] was > 100 µM throughout.

For `CCCCCCCCCCCCCCCC[N+](C)(CCO)Cc1cnc[nH]1` (configuration not stated), the GI50 in experiment [1] was 2.01 µM; in experiment [2], 3.13 µM; in experiment [3], 1.47 µM; in [5], 0.978 µM; in experiment [8], 1.78 µM; in experiment [9], 2.93 µM. Besides, the TGI in experiment [1] came out at 6.54 µM; in experiment [2] it was 19.4 µM; in [3], 6.63 µM; in experiment [5], 13.7 µM; in [8], 4.75 µM; in [9], 12.2 µM.

As for `CN1C(c2ccccc2)CS(=O)(=O)CS1(=O)=O` (configuration not stated), the TGI in experiment [1], in experiment [2], in experiment [3], in experiment [4], in experiment [5] and in experiment [6] was > 100 µM in each case. Further, the TGI in experiment [7], in [8] and in [9] was > 100 µM throughout.

For `O=S(=O)(N/N=C/c1cccc(Cl)c1Cl)c1ccccc1`, the TGI in experiment [1] is > 100 µM; in experiment [2] it was > 100 µM; in [3] it was > 100 µM; in experiment [4], > 100 µM; in experiment [5], > 100 µM; in experiment [10] it was 58.1 µM. The TGI in experiment [6], in experiment [8] and in [9] was > 100 µM throughout.

In the case of `COC(=O)c1c(O)c([N+](=O)[O-])cc2c1c1c(n2Cc2ccccc2)C(=O)c2ccccc2C1=O`, the GI50 in experiment [1] is 23.4 µM; in experiment [2], 29.8 µM; in experiment [3] it was 22.9 µM; in experiment [4], 14.1 µM; in experiment [5], 2.97 µM; in [6] it was 4.06 µM. Besides, the GI50 in experiment [7] is 17.1 µM; in experiment [8], 18.3 µM; in experiment [9], 18.5 µM. The TGI in experiment [1] is 46 µM; in experiment [2], > 100 µM; in experiment [3] it was 82.9 µM; in experiment [4], 53.1 µM; in experiment [5] it was 11.4 µM; in experiment [6], 17.5 µM. In addition, the TGI was 65.3 µM in experiment [7], 55.3 µM in [8] and 49 µM in experiment [9].

In the case of `CCN1C2=NCCN2S(=O)(=O)c2ccccc21`, the TGI in experiment [2], in experiment [3], in [4], in experiment [5], in experiment [10] and in [6] was > 100 µM each time. Further, the TGI in experiment [7], in [8] and in [9] was > 100 µM in each case.

In the case of `COc1ccc(/C=C2\CC(C)CC3C2=NN(C(C)=O)C3c2ccc(OC)cc2)cc1` (configuration not stated), the GI50 in [1] is 17.8 µM; in [2], 17.2 µM; in experiment [3] it was 27.3 µM; in experiment [4], 28.1 µM; in [5], 21.8 µM; in [10], 16.1 µM. For the same compound, the figures for the GI50 in [7], in experiment [8] and in experiment [9] were 27.6 µM, 19 µM and 17 µM, respectively. Moreover, the TGI in experiment [1] was 37.9 µM; in experiment [2], 39.3 µM; in experiment [3], > 100 µM; in experiment [4], > 100 µM; in [5] it was 59 µM; in [10] it was 50.1 µM. Also, the TGI in [7] was > 100 µM; in [8], 38.1 µM; in [9], 33.1 µM.

Take `O=C(Cc1nc2ccccc2s1)C(=O)Nc1cccc(Cl)c1`: the TGI in experiment [1], in [2], in experiment [3], in [4], in experiment [5] and in [6] was > 100 µM in each case. For the same compound, the TGI in experiment [7], in [8] and in experiment [9] was > 100 µM in each case.

For `Cc1ccc(C(=O)Nc2ccc(S(=O)(=O)O)c3cc(S(=O)(=O)O)cc(S(=O)(=O)O)c23)cc1NC(=S)Nc1cc(C(=O)Nc2ccc(S(=O)(=O)O)c3cc(S(=O)(=O)O)cc(S(=O)(=O)O)c23)ccc1C`, the TGI in experiment [1], in experiment [2], in experiment [4], in [5], in experiment [10] and in experiment [6] was > 75 µM throughout. In addition, the TGI in [7] and in [9] was > 75 µM in each case.

On to `Nc1nc2cc3ccc(C4CC(O)C(CO)O4)cc3cc2c(=O)[nH]1` (configuration not stated), for which the GI50 in experiment [3], in [4], in experiment [5], in experiment [10], in experiment [6] and in experiment [7] was > 100 µM throughout. The GI50 in [8] is > 100 µM; in experiment [9], 26.8 µM. In addition, the TGI in experiment [3], in [4], in experiment [5], in [10], in experiment [6] and in experiment [7] was > 100 µM each time. Further, the TGI in experiment [8] and in [9] was > 100 µM in each case.

On to `COc1cc2c3c(n(CCCNCCCNCCCNCCCN)c(=O)c2cc1OC)-c1cc2c(cc1C3=O)OCO2`, for which the GI50 in experiment [1] was 0.318 µM; in experiment [2], 3.1 µM; in experiment [3], 1.18 µM; in experiment [4], 2.19 µM; in [5], 2.18 µM; in experiment [10], 0.369 µM. In addition, the results for the GI50 in experiment [6], in experiment [7] and in experiment [9] were 1.5 µM, 2.23 µM and 3.14 µM, respectively. Moreover, the TGI in experiment [1] was 1.29 µM; in experiment [2], 12 µM; in [3] it was 3.5 µM; in [4] it was 10.8 µM; in [5] it was 13.9 µM; in [10] it was 2.57 µM. The TGI in [6] came out at 3.13 µM; in experiment [7], 15.4 µM; in experiment [9] it was 12.1 µM.

For `COC(=O)Nc1nc2ccc(C(=O)c3ccc(N(C)C4COC4)cc3)cc2[nH]1`, the GI50 is 0.846 µM in [2]; 0.708 µM in experiment [3]; 0.482 µM in experiment [4]; 0.355 µM in experiment [5]; 0.672 µM in [10]; 0.36 µM in experiment [6]. In addition, the GI50 in experiment [7] is 0.435 µM; in experiment [8] it was 0.264 µM; in [9], 0.413 µM. Besides, the TGI in experiment [2], in [3], in experiment [4], in experiment [5], in [10] and in experiment [6] was > 100 µM throughout. Moreover, the TGI in experiment [7] was > 100 µM; in experiment [8], 1.16 µM; in experiment [9] it was > 100 µM.
